Data taken from patent US20230301302A1, “AGROCHEMICAL ADJUVANTS” (Croda International Plc, priority 2020, published 2023).

Tests used:
[1] = test system: Botrytis cinerea (ATCC 90479); assay: Adjuvancy: agar growth inhibition assay (colony diameter) with fungicide and/or adjuvant; assay type: cell-based; conditions: for inherent fungicidal activity: adjuvant on its own, any of the concentrations tested
Source text: As a measure of the adjuvant activity in relation to the activity of the fungicide alone (e.g., pyraclostrobin) to B. cinerea a value of percent inhibition (adjuvant and fungicide) divided by percent inhibition (fungicide) can be defined, with higher values desired. A value of 1 would therefore represent equal activity of the adjuvant/fungicide combination to the fungicide alone, whereas a value above 1 would represent higher activity with the adjuvant/fungicide combination than the fungicide alone. The actives of the present invention may have a value greater than 1. Preferably greater than 1.5, most preferably greater than 2.
Percent Inhibition—The percent inhibition will be understood to represent the amount the fungicide and/or adjuvant that inhibits the visible growth of the microorganism after 48 hours incubation at 22° C. relative to vehicle treated controls. This is calculated using the following formula:
where: • ØC=diameter of the colony grown on agar supplemented with vehicle (i.e. vehicle treated control), and • ØT=diameter of the colony grown on agar supplemented with fungicide and/or adjuvant formulated in an appropriate vehicle (i.e. solvent such as water C2H5OH, CH3OH, CH3CN, DMSO).
Fold Change—The fold change is a measure of the adjuvant/fungicide combination in inhibiting a microorganism compared to the fungicide alone. This indicates how the adjuvant performs relative to the fungicide alone. This is calculated using the following formula:
where: • INHAF=percent inhibition of fungal growth when treated with fungicide and adjuvant, and • INHF=percent inhibition of fungal growth when treated with fungicide alone.
Botrytis cinerea (ATCC 90479) was cultured on Difco Potato Dextrose Agar (PDA) for 7 days with diurnal UV cycles (12 h UV light and 12 h dark). Spores were harvested in a buffered, sterile saline solution (w/v: 0.9% NaCl with 1% Tween 80) and counted using a haemocytometer. The spore suspension was adjusted to a final concentration of 8.5×10^6 spores/mL to create a standardised inoculum.
To prepare hyphal fragments for adjuvant testing, 8.5×10^4 spores were used to inoculate 10 mL of Difco Potato Dextrose Broth in a 150×25 mm tube. The tube was incubated at 220 RPM, 22° C. for 48 hours. To create hyphal fragments from the culture, the culture was transferred to a 50 mL plastic conical tube containing approximately 20 sterile 5 mm diameter glass beads and vortexed for 5 min. After vortexing the tube was allowed to stand for 5 min to allow large mycelial clumps to settle and then the top layer containing hyphal fragments was removed and used as inocula for growth inhibition assays.
Fungicides and adjuvants were dissolved in methanol and added to molten PDA (˜50° C.) and then the agar was distributed in the wells of 12 well multiwell plates (1 mL/well). The plates were cooled to room temperature and 10 μL of hyphal inoculum was added to the centre of each well. The plates were incubated at 22° C. for 48 hours and then the colony diameter was measured using a digital caliper. The biological growth control consisted of hyphae and vehicle (0.07% methanol), the negative control was media and vehicle (0.07% methanol).
The effect of the adjuvants on fungicidal activity is represented as fold increase in growth inhibition. A value of 1 indicates no increase in fungicidal activity. A value less than 1 indicates reduced fungicidal activity and a value greater than 1 indicates increased fungicidal activity.

[2] = test system: butterhead lettuce leaves; assay: Phytotoxicity on leaves, necrosis score; assay type: in vivo; conditions: scale 0 (no necrosis) to 3 (extended necrosis)
Experimental: (§1) Phytotoxicity of the diketopiperazines was assessed on soybean and butterhead lettuce leaves. Soybean seeds were inoculated with Bradyrhizobium japnicum and sown in Levington's M3 compost in 9 cm^2 plastic pots. Soybean plants were given supplementary lighting with SON-T bulbs. Biological control was used to prevent thrip damage (Biolone—Amblyseius cucumeris). The glasshouse temperatures were set to maintain 22° C.±2 during the day and 19° C.±2 at night. Lettuce plants were grown in the same manner without rhizobacteria inoculation. Supplementary lighting was provided by LED bulbs. All plants were maintained as well watered and grown for fourteen days. Test compounds/extracts were resuspended in 2% DMSO ([…]). Synperonic Al1 LQ was used a positive control and UEP-100 as a negative control. Treatments were applied as six 10 μL droplets on the leaf's surface. Phytotoxic tissue damage was assessed 1- and 7-days post-treatment and on a scale of 0 to 3. The phytotoxic effect of the compounds/extract at 1 g/L is represented as a mean phytotoxic necrosis score, where 0=no necrosis; 1=slight spot-like necrosis of the inoculation site; 2=ring-shaped necrosis; 3=extended necrosis.

soybean leaves = assay: Phytotoxicity on leaves, necrosis score; assay type: in vivo; conditions: Soy, 1 g/L, scale 0 (no necrosis) to 3 (extended necrosis)
Experimental: as §1

[3] = test system: African green monkey Vero kidney cells (ATCC CCL-81); assay: Cytotoxicity, alamarBlue cell viability; assay type: cell-based; conditions: highest concentration tested (128 μg/mL); 24 hours
Experimental: The cytotoxicity of the diketopiperazines was assessed in vitro against African green monkey Vero kidney cells (ATCC CCL-81). Cells were cultured in 15 mL of Eagle's minimal essential medium (Sigma) supplemented with 10% (v/v) fetal bovine serum (VWR), […] penicillin and 0.1 mg/mL streptomycin in T75 cm^2 cell culture flasks. Cells were incubated for 24 hours at 37° C. in a humidified atmosphere of 5% CO2. Culture medium was refreshed every 2-3 days and cells were not allowed to exceed 80% confluency. At 80% confluency the cells were counted, diluted and plated into 96 well flat bottom cell culture plates (Corning) at a cell density of 10,000 cells per well in 90 μL of growth medium. The plates were incubated at 37° C. in a humidified atmosphere of 5% CO2 for 24 hours to allow cells to adhere to the plate before treatment. After 24 hours, adjuvants were solubilised in DMSO, serially diluted and added to the wells at final concentrations ranging from 1 μg/mL to 128 μg/mL. DMSO was used as the vehicle at a final concentration of 1% in the wells. The plates were incubated at 37° C. in a humidified atmosphere of 5% CO2 for 24 hours after which alamarBlue (Invitrogen) was added to each well at 10% of the culture volume. Fluorescence was monitored using a Thermo Scientific Varioskan Flash plate reader at 560/12 excitation, 590 nm emission both at time zero and 4 hrs after alamarBlue addition. After subtracting the time zero emission 590 nm measurement from the final reading, the inferred percentage of cell viability relative to the vehicle control wells was calculated.

[4] = Pyra 0.0156 μg/mL, adjuvant 128 μg/mL, vs pyraclostrobin alone, 48 h, 22° C.
[5] = Pyra 0.0313 μg/mL, adjuvant 128 μg/mL, vs pyraclostrobin alone, 48 h, 22° C.
[6] = Pyra 0.0625 μg/mL, adjuvant 128 μg/mL, vs pyraclostrobin alone, 48 h, 22° C.

SMILES	Fold Change in Growth Inhibition [1, 4]	Fold Change in Growth Inhibition [1, 5]	Fold Change in Growth Inhibition [1, 6]	Fold Change in Growth Inhibition ([1]; Teb 0.095 μg/mL, adjuvant 25 μg/mL, vs tebuconazole alone)	Fold Change in Growth Inhibition ([1]; Teb 0.095 μg/mL, adjuvant 50 μg/mL, vs tebuconazole alone)	Fold Change in Growth Inhibition ([1]; Teb 0.095 μg/mL, adjuvant 100 μg/mL, vs tebuconazole alone)	Fold Change in Growth Inhibition ([1]; Teb 0.19 μg/mL, adjuvant 25 μg/mL, vs tebuconazole alone)	Fold Change in Growth Inhibition ([1]; Teb 0.19 μg/mL, adjuvant 50 μg/mL, vs tebuconazole alone)	Fold Change in Growth Inhibition ([1]; Teb 0.19 μg/mL, adjuvant 100 μg/mL, vs tebuconazole alone)	inherent fungicidal activity [1]	Mean Score (phytotoxic necrosis) ([2]; Day 1, 1 g/L)	Mean Score (phytotoxic necrosis) ([2]; Day 7, 1 g/L)	Mean Score (phytotoxic necrosis) ([2]; Day 7, 1 g/L, listed as DKP (1a))	Mean Score (phytotoxic necrosis) (soybean leaves; Day 1)	Mean Score (phytotoxic necrosis) (soybean leaves; Day 7)	Mean Score (phytotoxic necrosis) (soybean leaves; Day 7, listed as DKP (1a))	cytotoxicity against Vero cells [3]
CN1C(=O)[C@@H]2CCCN2C(=O)/C1=C/c1ccccc1 [DKP (Ia)]	2.18	3.31	1.87	1.97	1.78	2.00	4.39	1.78	2.76	did not demonstrate any inherent fungicidal activity	0	did not exhibit any phytotoxicity	0	0	did not exhibit any phytotoxicity	0	did not exhibit any cytotoxicity
CN1C(=O)[C@@H]2CCCN2C(=O)/C1=C\c1ccccc1 [DKP (Ib)]										did not demonstrate any inherent fungicidal activity							did not exhibit any cytotoxicity
O=C1N/C(=C\c2ccccc2)C(=O)N2CCC[C@@H]12 [DKP (Ic)]	1.52	3.14	1.48							did not demonstrate any inherent fungicidal activity							did not exhibit any cytotoxicity
O=C1N/C(=C/c2ccccc2)C(=O)N2CCC[C@@H]12 [DKP (Id)]										did not demonstrate any inherent fungicidal activity							did not exhibit any cytotoxicity
